Measured values taken from patent US20040047865A1, “Compositions and their uses” (priority 1995, published 2004).

Tests used:
[1] = test system: XNA IgG, normal porcine endothelial cells (PAE-68#4); assay: Two stage chromium release assay, inhibition of lysis by affinity-isolated IgG in the presence of sugars (FIG. 3); type: cell-based; conditions: IgG 80 μg/ml
Procedure: (§1) Briefly normal porcine endothelial cells were grown to confluence in 96well plates before being washed and labelled with ^51chromium. Excess label was removed and the cells were exposed to different concentrations of XNA. Unbound antibody was removed and 1/8 baby rabbit complement added for 1 hour at 37° C. Cell lysis was expressed as a percentage of the total counts associated with the endothelial cells, which could be detected in the medium after incubation of the cells with complement. […] Affinity-isolated IgM (10 μg/ml) or IgG (80 μg/ml) was incubated with endothelial cells as before in the presence of varying concentrations of four different sugar preparations. The cells were then washed and exposed to baby rabbit complement as previously described.

[2] = test system: porcine endothelial cells; conditions: Neethling et al 1994; cited from earlier work
[3] = test system: XNA IgM, normal porcine endothelial cells (PAE-68#4); assay: Two stage chromium release assay, inhibition of lysis by affinity-isolated IgM in the presence of sugars (FIG. 3); type: cell-based; conditions: IgM 10 μg/ml
Procedure: as §1

pig endothelial cells = conditions: infusion into baboons; Ye et al 1994; cited from earlier work

Molecule	inhibition of cell lysis / IgG binding [1]	inhibition of the cytotoxic effects of human serum on porcine endothelial cells [2]	inhibition of cell lysis / XNA IgM binding [3]	protection of pig endothelial cells from killing by serum of infused baboons (pig endothelial cells)
OC[C@H]1O[C@H](O[C@H]2[C@@H](O)[C@@H](CO)OC(O)[C@@H]2O)[C@H](O)[C@@H](O)[C@H]1O (stereo partly shown) [B-disaccharide, Galα1,3Gal]	minimal difference	best inhibitors	–	–
CC(=O)N[C@H]1C(O)O[C@H](CO)[C@@H](O[C@@H]2O[C@H](CO)[C@H](O)[C@H](O[C@H]3O[C@H](CO)[C@H](O)[C@H](O)[C@H]3O)[C@H]2O)[C@@H]1O (stereo partly shown) [B-trisaccharide, Galα1,3Galβ1,4GlcNAc]	minimal difference	best inhibitors	superior to B-disaccharide	–
OC[C@H]1O[C@H](OCC2O[C@@H](O)[C@H](O)[C@@H](O)[C@@H]2O)[C@H](O)[C@@H](O)[C@H]1O (stereo partly shown) [melibiose]	–	–	–	A level of protection was afforded
arabinogalactan	–	–	–	A level of protection was afforded
